The record followed here is PubChem BioAssay AID743510 (Broad Institute, 2014).

Calls of active or inactive are those of the source.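 How the source made its calls: active means compounds that block bursicon-driven reporter light with an IC50 below a set limit; inactive means IC50 above that limit.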

For this assay, the target named is Bursicon receptor LGR2 (rickets), Drosophila melanogaster. Kind of assay: LGR2 bursicon receptor antagonists, dose response, cell-based, HEK293, CRE-luciferase, beta-gal normalized, dry powder (AID 743510). The settings on record: bursicon-stimulated, antagonist luminescence.
In general, IC50 refers to the midpoint of a concentration-inhibition curve. On to `C[C@@H]1CN([C@@H](C)CO)C(=O)c2cc(NC(=O)C3CCCCC3)ccc2O[C@@H](C)CCCCO[C@H]1CN(C)C(=O)Nc1cccc2ccccc12`, for which the IC50 is less than 35 µM.
Next, `C[C@H](CO)N1C[C@H](C)[C@H](CN(C)C(=O)Nc2ccc(F)cc2)OCCCC[C@H](C)Oc2ccc(NC(=O)C3CCCCCC3)cc2C1=O`: less than 35 µM; `C[C@H](CO)N1C[C@H](C)[C@H](CN(C)C(=O)Nc2ccc(F)cc2)OCCCC[C@H](C)Oc2ccc(NC(=O)C3CCCC3)cc2C1=O`: less than 35 µM; `C[C@@H]1CCCCO[C@@H](CN(C)C(=O)Nc2cccc3ccccc23)[C@@H](C)CN([C@H](C)CO)C(=O)c2cc(NC(=O)C3CCCCC3)ccc2O1`: > 35 µM (inactive).
In the case of `C[C@@H]1CN([C@H](C)CO)C(=O)c2cc(NC(=O)C3CCCCC3)ccc2O[C@@H](C)CCCCO[C@@H]1CN(C)C(=O)Nc1cccc2ccccc12`, the IC50 is > 35 µM (inactive).
Next, `C[C@@H]1CCCCO[C@@H](CN(C)C(=O)Nc2cccc3ccccc23)[C@H](C)CN([C@H](C)CO)C(=O)c2cc(NC(=O)C3CCCCC3)ccc2O1`: > 35 µM (inactive); `C[C@H](CO)N1C[C@H](C)[C@H](CN(C)C(=O)Nc2ccc3ccccc3c2)OCCCC[C@H](C)Oc2ccc(NC(=O)C3CCCCC3)cc2C1=O`: less than 35 µM; `C[C@@H]1CCCCO[C@H](CN(C)C(=O)Nc2cccc3ccccc23)[C@@H](C)CN([C@H](C)CO)C(=O)c2cc(NC(=O)C3CCCCC3)ccc2O1`: > 35 µM (inactive).
Next, `C[C@H](CO)N1C[C@H](C)[C@H](CN(C)C(=O)Nc2ccc(Cl)cc2)OCCCC[C@H](C)Oc2ccc(NC(=O)C3CCCCC3)cc2C1=O`: less than 35 µM; `C[C@H]1CCCCO[C@H](CN(C)C(=O)Nc2cccc3ccccc23)[C@@H](C)CN([C@@H](C)CO)C(=O)c2cc(NC(=O)C3CCCCC3)ccc2O1`: > 35 µM (inactive); `Cc1ccc(NC(=O)N(C)C[C@@H]2OCCCC[C@H](C)Oc3ccc(NC(=O)C4CCCCC4)cc3C(=O)N([C@H](C)CO)C[C@@H]2C)cc1`: less than 35 µM.
As for `C[C@@H]1CCCCO[C@@H](CN(C)C(=O)Nc2cccc3ccccc23)[C@@H](C)CN([C@@H](C)CO)C(=O)c2cc(NC(=O)C3CCCCC3)ccc2O1`, the IC50 was > 35 µM (inactive).
As to `C[C@H](CO)N1C[C@H](C)[C@H](CN(C)C(=O)Nc2ccccc2F)OCCCC[C@H](C)Oc2ccc(NC(=O)C3CCCCC3)cc2C1=O`, the IC50 was less than 35 µM.
For `C[C@H](CO)N1C[C@H](C)[C@H](CN(C)C(=O)Nc2cccc3ccccc23)OCCCC[C@H](C)Oc2ccc(NC(=O)C3CCCCC3)cc2C1=O`, the IC50 is less than 35 µM.
Turning to `C[C@H](CO)N1C[C@H](C)[C@H](CN(C)C(=O)Nc2cccc(F)c2)OCCCC[C@H](C)Oc2ccc(NC(=O)C3CCCCC3)cc2C1=O`, the IC50 is less than 35 µM.
The result for `C[C@@H]1CN([C@H](C)CO)C(=O)c2cc(NC(=O)C3CCCCC3)ccc2O[C@@H](C)CCCCO[C@H]1CN(C)C(=O)Nc1cccc2ccccc12` reads > 35 µM (inactive).
Next, `C[C@@H]1CCCCO[C@H](CN(C)C(=O)Nc2cccc3ccccc23)[C@@H](C)CN([C@@H](C)CO)C(=O)c2cc(NC(=O)C3CCCCC3)ccc2O1`: > 35 µM (inactive); `CC(=O)Nc1ccc2c(c1)C(=O)N([C@H](C)CO)C[C@H](C)[C@H](CN(C)C(=O)Nc1ccc(F)cc1)OCCCC[C@H](C)O2`: > 35 µM (inactive); `C[C@@H]1CCCCO[C@H](CN(C)C(=O)Nc2cccc3ccccc23)[C@H](C)CN([C@@H](C)CO)C(=O)c2cc(NC(=O)C3CCCCC3)ccc2O1`: > 35 µM (inactive).
Next, `C[C@H]1CCCCO[C@@H](CN(C)C(=O)Nc2cccc3ccccc23)[C@@H](C)CN([C@@H](C)CO)C(=O)c2cc(NC(=O)C3CCCCC3)ccc2O1`: less than 35 µM.
Turning to `C[C@H](CO)N1C[C@H](C)[C@H](CN(C)C(=O)Nc2ccc(F)cc2)OCCCC[C@H](C)Oc2ccc(NC(=O)C3CC3)cc2C1=O`, the IC50 is > 35 µM (inactive).
With `C[C@@H]1CN([C@@H](C)CO)C(=O)c2cc(NC(=O)C3CCCCC3)ccc2O[C@@H](C)CCCCO[C@@H]1CN(C)C(=O)Nc1cccc2ccccc12`, the IC50 is > 35 µM (inactive).
Take `C[C@H](CO)N1C[C@H](C)[C@@H](CN(C)C(=O)Nc2cccc3ccccc23)OCCCC[C@H](C)Oc2ccc(NC(=O)C3CCCCC3)cc2C1=O`: the IC50 was > 35 µM (inactive).
As for `C[C@@H]1CCCCO[C@H](CN(C)C(=O)Nc2cccc3ccccc23)[C@H](C)CN([C@H](C)CO)C(=O)c2cc(NC(=O)C3CCCCC3)ccc2O1`, the IC50 was > 35 µM (inactive).
Take `C[C@H](CO)N1C[C@H](C)[C@H](CN(C)C(=O)Nc2ccc(F)cc2)OCCCC[C@H](C)Oc2ccc(NC(=O)C3CCOCC3)cc2C1=O`: the IC50 is > 35 µM (inactive).
The result for `C[C@@H]1CCCCO[C@@H](CN(C)C(=O)Nc2cccc3ccccc23)[C@H](C)CN([C@@H](C)CO)C(=O)c2cc(NC(=O)C3CCCCC3)ccc2O1` reads > 35 µM (inactive).
